From PubChem BioAssay AID2060487 (Molecular Pharmacology Branch, DTP, NCI, 2025)

System: 997537-175-T-J1-PDC complex spheroid viability
Assay: Anticancer human tumor 997537-175-T-J1-PDC patient-derived colon adenocarcinoma cell line growth inhibition [GQUAD]
Conditions: for IC50: curve of first compound; for viability, T/C: stronger effect = lower value; active means viability on the fitted dose curve at most 10% of control; inactive means the rest
How it was run: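 Multi-cell-type spheroids of tumor cells with HUVEC and mesenchymal stem cells, treated with drug combinations. Concentrations descend in half-log steps from near clinical Cmax, or from 10 microM where Cmax is unknown; viability read-out.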

[1] = second compound 0.0316 µM, first compound 0.0316 µM
[2] = second compound 0.0316 µM, first compound 0.1 µM
[3] = second compound 0.0316 µM, first compound 0.316 µM
[4] = second compound 0.0316 µM, first compound 1 µM
[5] = second compound 0.0316 µM, first compound 3.16 µM
[6] = second compound 0.0316 µM, first compound 10 µM
[7] = second compound 0.1 µM, first compound 0.0316 µM
[8] = second compound 0.1 µM, first compound 0.1 µM
[9] = second compound 0.1 µM, first compound 0.316 µM
[10] = second compound 0.1 µM, first compound 1 µM
[11] = second compound 0.1 µM, first compound 3.16 µM
[12] = second compound 0.1 µM, first compound 10 µM
[13] = second compound 0.316 µM, first compound 0.0316 µM
[14] = second compound 0.316 µM, first compound 0.1 µM
[15] = second compound 0.316 µM, first compound 0.316 µM
[16] = second compound 0.316 µM, first compound 1 µM
[17] = second compound 0.316 µM, first compound 3.16 µM
[18] = second compound 0.316 µM, first compound 10 µM
[19] = second compound 1 µM, first compound 0.0316 µM
[20] = second compound 1 µM, first compound 0.1 µM
[21] = second compound 1 µM, first compound 0.316 µM
[22] = second compound 1 µM, first compound 1 µM
[23] = second compound 1 µM, first compound 3.16 µM
[24] = second compound 1 µM, first compound 10 µM
[25] = second compound 3.16 µM, first compound 0.0316 µM
[26] = second compound 3.16 µM, first compound 0.1 µM
[27] = second compound 3.16 µM, first compound 0.316 µM
[28] = second compound 3.16 µM, first compound 1 µM
[29] = second compound 3.16 µM, first compound 3.16 µM
[30] = second compound 3.16 µM, first compound 10 µM
[31] = second compound 10 µM, first compound 0.0316 µM
[32] = second compound 10 µM, first compound 0.1 µM
[33] = second compound 10 µM, first compound 0.316 µM
[34] = second compound 10 µM, first compound 1 µM
[35] = second compound 10 µM, first compound 3.16 µM
[36] = second compound 10 µM, first compound 10 µM
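Further: spheroids exposed to the agents for 7 days.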
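Wherever viability, T/C is given: 100% = DMSO vehicle control viability.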

C=CCn1c(=O)c2cnc(Nc3ccc(N4CCN(C)CC4)cc3)nc2n1-c1cccc(C(C)(C)O)n1 + Cc1cnc(CNC(=O)c2c(=O)c3ccc(N4CCCN(C)CC4)nc3n3c2sc2ccccc23)cn1
8480 nM: IC50 (second compound 10 µM)
> 10000 nM: IC50 (second compound 3.16 µM)
inactive: viability, T/C [1] 105% | viability, T/C [2] 76.5% | viability, T/C [3] 99% | viability, T/C [4] 70.5% | viability, T/C [5] 32.8% | viability, T/C [6] 20.4% | viability, T/C [7] 105% | viability, T/C [8] 104% | viability, T/C [9] 98.3% | viability, T/C [10] 71.2% | viability, T/C [11] 48.6% | viability, T/C [12] 30.4% | viability, T/C [13] 89% | viability, T/C [14] 94.2% | viability, T/C [15] 91.3% | viability, T/C [16] 74% | viability, T/C [17] 44.8% | viability, T/C [18] 38.1% | viability, T/C [19] 80.5% | viability, T/C [20] 99.8% | viability, T/C [21] 112% | viability, T/C [22] 61.1% | viability, T/C [23] 76% | viability, T/C [24] 43.2% | viability, T/C [25] 63.1% | viability, T/C [26] 98.4% | viability, T/C [27] 96% | viability, T/C [28] 107% | viability, T/C [29] 75.2% | viability, T/C [30] 50.6% | viability, T/C [31] 73.8% | viability, T/C [32] 99.3% | viability, T/C [33] 87.2% | viability, T/C [34] 87% | viability, T/C [35] 79.8% | viability, T/C [36] 44.8%
1870 nM: IC50 (second compound 0.0316 µM)
7650 nM: IC50 (second compound 1 µM)
2550 nM: IC50 (second compound 0.316 µM)
2730 nM: IC50 (second compound 0.1 µM)

CC(C)(O)C1CCC(Nc2ccc3ncc(-c4cccc(C(F)(F)F)c4)n3n2)CC1 (stereo not drawn) + Cc1cnc(CNC(=O)c2c(=O)c3ccc(N4CCCN(C)CC4)nc3n3c2sc2ccccc23)cn1
1730 nM: IC50 (second compound 1 µM)
896 nM: IC50 (second compound 0.1 µM)
1570 nM: IC50 (second compound 10 µM)
1130 nM: IC50 (second compound 0.0316 µM)
inactive: viability, T/C [1] 90.1% | viability, T/C [2] 66.9% | viability, T/C [3] 88.4% | viability, T/C [4] 52.1% | viability, T/C [5] 32.2% | viability, T/C [6] 30.2% | viability, T/C [7] 87.6% | viability, T/C [8] 80.2% | viability, T/C [9] 73.4% | viability, T/C [10] 46.9% | viability, T/C [11] 36.7% | viability, T/C [12] 33.7% | viability, T/C [13] 98.1% | viability, T/C [14] 81.1% | viability, T/C [15] 80.5% | viability, T/C [16] 57.2% | viability, T/C [17] 31.7% | viability, T/C [18] 36.5% | viability, T/C [19] 69.9% | viability, T/C [20] 101% | viability, T/C [21] 91.4% | viability, T/C [22] 64.5% | viability, T/C [23] 35.4% | viability, T/C [24] 27% | viability, T/C [25] 92.5% | viability, T/C [26] 84.4% | viability, T/C [27] 96.3% | viability, T/C [28] 65.4% | viability, T/C [29] 20.1% | viability, T/C [30] 23.2% | viability, T/C [31] 76.2% | viability, T/C [32] 108% | viability, T/C [33] 91.5% | viability, T/C [34] 69.4% | viability, T/C [35] 19.1% | viability, T/C [36] 21.2%
1500 nM: IC50 (second compound 3.16 µM)
1380 nM: IC50 (second compound 0.316 µM)

CCCS(=O)(=O)Nc1ccc(F)c(C(=O)c2c[nH]c3ncc(-c4ccc(Cl)cc4)cc23)c1F + Cc1cnc(CNC(=O)c2c(=O)c3ccc(N4CCCN(C)CC4)nc3n3c2sc2ccccc23)cn1
739 nM: IC50 (second compound 1 µM)
1460 nM: IC50 (second compound 10 µM)
778 nM: IC50 (second compound 0.316 µM)
inactive: viability, T/C [1] 77.7% | viability, T/C [2] 50.8% | viability, T/C [3] 67.3% | viability, T/C [4] 44.8% | viability, T/C [5] 56.2% | viability, T/C [6] 22.2% | viability, T/C [7] 73.8% | viability, T/C [8] 64.7% | viability, T/C [9] 76.1% | viability, T/C [10] 40.8% | viability, T/C [11] 53.1% | viability, T/C [12] 21.6% | viability, T/C [13] 93.5% | viability, T/C [14] 56.2% | viability, T/C [15] 60% | viability, T/C [16] 45.7% | viability, T/C [17] 55.2% | viability, T/C [18] 21.8% | viability, T/C [19] 84.3% | viability, T/C [20] 62.7% | viability, T/C [21] 48.4% | viability, T/C [22] 56.3% | viability, T/C [23] 48.2% | viability, T/C [24] 27.7% | viability, T/C [25] 82.7% | viability, T/C [26] 58.6% | viability, T/C [27] 62.2% | viability, T/C [28] 64.7% | viability, T/C [29] 42.8% | viability, T/C [30] 26.1% | viability, T/C [31] 83.6% | viability, T/C [32] 74.2% | viability, T/C [33] 68.8% | viability, T/C [34] 44% | viability, T/C [35] 51.5% | viability, T/C [36] 26.9%
1900 nM: IC50 (second compound 0.0316 µM)
1890 nM: IC50 (second compound 3.16 µM)
1760 nM: IC50 (second compound 0.1 µM)

Cc1[nH]c2ccccc2c1CCNCc1ccc(/C=C/C(=O)NO)cc1 + Cc1cnc(CNC(=O)c2c(=O)c3ccc(N4CCCN(C)CC4)nc3n3c2sc2ccccc23)cn1
232 nM: IC50 (second compound 0.316 µM)
inactive: viability, T/C (second compound 0.0316 µM, first compound 0.000999 µM) 87.7% | viability, T/C (second compound 0.0316 µM, first compound 0.00316 µM) 99% | viability, T/C (second compound 0.0316 µM, first compound 0.00999 µM) 98% | viability, T/C [1] 80.6% | viability, T/C (second compound 0.0316 µM, first compound 0.0999 µM) 82.2% | viability, T/C [3] 52.7% | viability, T/C (second compound 0.1 µM, first compound 0.000999 µM) 98.3% | viability, T/C (second compound 0.1 µM, first compound 0.00316 µM) 94.9% | viability, T/C (second compound 0.1 µM, first compound 0.00999 µM) 88.9% | viability, T/C [7] 90.5% | viability, T/C (second compound 0.1 µM, first compound 0.0999 µM) 80.2% | viability, T/C [9] 59.5% | viability, T/C (second compound 0.316 µM, first compound 0.000999 µM) 105% | viability, T/C (second compound 0.316 µM, first compound 0.00316 µM) 90.7% | viability, T/C (second compound 0.316 µM, first compound 0.00999 µM) 88.6% | viability, T/C [13] 84.1% | viability, T/C (second compound 0.316 µM, first compound 0.0999 µM) 99.9% | viability, T/C [15] 33.9% | viability, T/C (second compound 1 µM, first compound 0.000999 µM) 76.1% | viability, T/C (second compound 1 µM, first compound 0.00316 µM) 87.6% | viability, T/C (second compound 1 µM, first compound 0.00999 µM) 101% | viability, T/C [19] 102% | viability, T/C (second compound 1 µM, first compound 0.0999 µM) 81.8% | viability, T/C [21] 53.1% | viability, T/C (second compound 3.16 µM, first compound 0.000999 µM) 96% | viability, T/C (second compound 3.16 µM, first compound 0.00316 µM) 100% | viability, T/C (second compound 3.16 µM, first compound 0.00999 µM) 103% | viability, T/C [25] 81.4% | viability, T/C (second compound 3.16 µM, first compound 0.0999 µM) 110% | viability, T/C [27] 30.2% | viability, T/C (second compound 10 µM, first compound 0.000999 µM) 99.2% | viability, T/C (second compound 10 µM, first compound 0.00316 µM) 108% | viability, T/C (second compound 10 µM, first compound 0.00999 µM) 92.8% | viability, T/C [31] 94.4% | viability, T/C (second compound 10 µM, first compound 0.0999 µM) 108% | viability, T/C [33] 44.3%
226 nM: IC50 (second compound 3.16 µM)
281 nM: IC50 (second compound 10 µM)
> 316 nM: IC50 (second compound 0.0316 µM) | IC50 (second compound 0.1 µM) | IC50 (second compound 1 µM)
